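Step 1: Grow cells in 96-well plates. Step 2: Expose to compound for 48 hours at 5 concentrations. Step 3: Interpolate endpoints linearly; if unreached, use highest concentration. At the GI50, growth is halved.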 The source made the active and inactive calls. Cut-off read from the data, not from the text of the source: active = GI50 up to about 1.1 µM and inactive = higher.
Tests used:
Test in all cases: growth of human tumour cells (NCI), 48 h
[1] = tested on: BT-549
[2] = tested on: HCT-15
[3] = tested on: HOP-92
[4] = tested on: HT-29
[5] = tested on: Hs-578T
[6] = tested on: IGROV-1
[7] = tested on: M14
[8] = tested on: MDA-MB-231
[9] = tested on: Malme-3M
[10] = tested on: SF-268
[11] = tested on: SK-MEL-5
[12] = tested on: SN12C
[13] = tested on: SNB-19
[14] = tested on: SNB-75
[15] = tested on: UO-31
[16] = tested on: CCRF-CEM
[17] = tested on: COLO 205
[18] = tested on: MDA-MB-435
[19] = tested on: SK-MEL-28
[20] = tested on: SW-620

Measured: GI50

COC(=O)C(=O)C(C(=O)C(=O)Nc1ccccc1C(C)=O)c1nc2ccc(C(=O)c3ccccc3)cc2nc1O (stereo not drawn)
74 µM: [2]
inactive: [1] > 100 µM | [3] 75 µM | [4] 77.8 µM | [5] 47.2 µM | [6] 20.2 µM | [7] > 100 µM | [8] 78 µM | [9] > 100 µM | [10] 68.2 µM | [11] 62.8 µM | [12] > 100 µM | [13] 52 µM | [14] 32.7 µM | [15] 26.7 µM

CC(C)(C)SC1=CCC[C@@H](P(=O)(c2ccccc2)c2ccccc2)[C@@H]2CCC[C@@H]12
16.6 µM: [2]
inactive: [1] 17.8 µM | [16] 24.6 µM | [17] 18 µM | [3] 13.7 µM | [4] 14.2 µM | [5] 20.7 µM | [6] 17.2 µM | [7] 15.3 µM | [18] 15 µM | [9] 19.6 µM | [10] 17.8 µM | [19] 24.3 µM | [11] 17.7 µM | [12] 15.7 µM | [13] 16.1 µM | [14] 11.8 µM | [20] 27 µM | [15] 16.5 µM

CC(C)/C(Cl)=N\OC(=O)Nc1cccc(F)c1
inactive: [1] 2.66 µM | [16] 1.9 µM | [17] 2.44 µM | [3] 1.46 µM | [4] 18.3 µM | [5] 26.5 µM | [6] 18.6 µM | [8] 16.9 µM | [9] 6.24 µM | [10] 19.6 µM | [19] 16.2 µM | [11] 15 µM | [12] 16.5 µM | [13] > 100 µM | [14] 22.6 µM | [20] 2.23 µM | [15] 18.6 µM
15.8 µM: [2]
active: [7] 0.933 µM

O=c1[nH]nc(Cc2ccc(Cl)cc2)n1/N=C/c1ccco1
> 100 µM: [2]
inactive: [1] 40.6 µM | [16] > 100 µM | [17] > 100 µM | [3] 93.8 µM | [4] 33.1 µM | [7] > 100 µM | [8] 46.1 µM | [18] > 100 µM | [9] > 100 µM | [10] 38.3 µM | [19] > 100 µM | [12] > 100 µM | [13] 25.4 µM | [14] 28.6 µM | [20] > 100 µM | [15] > 100 µM

O=C1O/C(=C\c2ccc(O)cc2)C(c2ccc(O)c(Cl)c2)=C1Cl
50 µM: [2]
inactive: [16] 35.7 µM | [17] 96.6 µM | [3] 26.5 µM | [4] 53.2 µM | [5] > 100 µM | [6] 40.1 µM | [7] 35.7 µM | [8] 77.4 µM | [18] 27.4 µM | [9] 24.5 µM | [10] 29.2 µM | [19] > 100 µM | [11] 18.5 µM | [12] 88.9 µM | [13] 76.9 µM | [14] 70 µM | [20] 41.7 µM | [15] 35.2 µM

CC(/C(=N/NC(=O)C(N)=O)c1c(Cl)ccc(Cl)c1O)C1(O)C(=O)Nc2ccccc21 (stereo not drawn)
34.1 µM: [2]
inactive: [16] 31.8 µM | [17] 23.2 µM | [3] 27.8 µM | [4] 39.5 µM | [6] 29.9 µM | [7] 68.7 µM | [9] 64.9 µM | [10] > 100 µM | [19] > 100 µM | [11] 34.6 µM | [12] 70.3 µM | [13] 72.4 µM | [14] 28.6 µM | [20] 41.7 µM | [15] 38 µM

C[C@H]1ON2CCC[C@@H]2[C@@H]1C(=O)N1C2CC3CCC2(CS1(=O)=O)C3(C)C (stereo partly drawn)
> 100 µM: [2]
inactive: [16] > 100 µM | [17] > 100 µM | [4] > 100 µM | [5] > 100 µM | [6] > 100 µM | [7] > 100 µM | [8] > 100 µM | [18] > 100 µM | [9] > 100 µM | [10] > 100 µM | [19] > 100 µM | [11] > 100 µM | [12] > 100 µM | [13] > 100 µM | [14] > 100 µM | [20] > 100 µM

Cc1ccc(-n2nnc3c(NNc4ccccc4)n[nH]c(=O)c32)cc1
> 100 µM: [2]
inactive: [1] 73.3 µM | [16] 92 µM | [17] 75 µM | [3] 23.1 µM | [4] 57.9 µM | [7] > 100 µM | [8] 96.8 µM | [18] 74.6 µM | [9] > 100 µM | [10] > 10 µM | [19] > 100 µM | [11] 43.1 µM | [12] > 100 µM | [13] 59 µM | [14] 36.6 µM

Source: ChEMBL document CHEMBL1201862, “PubChem BioAssay data set” (2004)
